Assay results as given in the supplement of paper PMC6965134.
± gives the standard deviation of the averaged measurements. Values belong to the molecule of their own block, whether it stands above or below them.

Assay: TIMS collisional cross section (CCS, N2) of the lipid ion; higher = larger ion cross section
Conditions: ionization mode: negative, one isomer drawn
Method: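 Lipid extracts of human plasma (NIST SRM 1950), mouse liver or HeLa cells were separated by nanoflow C18 LC (30 min gradient) and analysed by TIMS-PASEF on a timsTOF Pro. Ion mobility was calibrated with the Agilent tuning mix (negative mode ions) and converted to collisional cross sections (Mason–Schamp, N2).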

[1] = sample type: Human plasma, ion (formula + adduct): [C41H74NO8P-H] 1-
[2] = sample type: Mouse Liver, ion (formula + adduct): [C43H74NO9P-H] 1-
[3] = sample type: Human plasma, ion (formula + adduct): [C43H78NO9P-H] 1-
[4] = sample type: Mouse Liver, ion (formula + adduct): [C43H78NO9P-H] 1-
[5] = sample type: Human plasma, ion (formula + adduct): [C45H78NO9P-H] 1-
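Also: lipids from MTBE extraction, five replicate injections per sample, 100 ms TIMS ramp spanning 0.6–1.95 Vs/cm², lipid identity assigned from PASEF MS/MS spectra.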

TIMS collisional cross section (sample type: Human plasma, ion (formula + adduct): [C46H84NO9P+HCOO] 1-): 302.75 ± 1.5 Å²
TIMS collisional cross section (sample type: Mouse Liver, ion (formula + adduct): [C46H84NO9P+HCOO] 1-): 302.3 Å²
SMILES: CCCCC/C=C\C[C@H](O)/C=C/C=C\C/C=C\CCCC(=O)O[C@H](COC(=O)CCCCCCCCCCCCCCCCC)COP(=O)([O-])OCC[N+](C)(C)C [Oxidized PC 18:0_20:4]

TIMS collisional cross section (sample type: Human plasma, ion (formula + adduct): [C41H74NO8P+OAcO] 1-): 291.6 Å²
TIMS collisional cross section [1]: 274.77 ± 1.5 Å²
SMILES: CCCCC/C=C\C[C@H](O)/C=C/C=C\C/C=C\CCCC(=O)O[C@H](CO/C=C\CCCCCCCCCCCCCC)COP(=O)(O)OCCN [Oxidized PE 16:0@_20:4]

TIMS collisional cross section (sample type: Human plasma, ion (formula + adduct): [C43H74NO8P-H] 1-): 277.4 Å²
SMILES: CC/C=C\C/C=C\CC(O)/C=C/C=C\C/C=C\C/C=C\CCC(=O)O[C@H](CO/C=C\CCCCCCCCCCCCCC)COP(=O)(O)OCCN (some centres not stated) [Oxidized PE 16:0@_22:6]

TIMS collisional cross section [2]: 279 Å²
SMILES: CC/C=C\C/C=C\CC(O)/C=C/C=C\C/C=C\C/C=C\CCC(=O)O[C@H](COC(=O)CCCCCCCCCCCCCCC)COP(=O)(O)OCCN (some centres not stated) [Oxidized PE 16:0@_22:6]

TIMS collisional cross section [2]: 290.6 Å²
SMILES: CC/C=C\C/C=C\CC(O)/C=C/C=C\C/C=C\C/C=C\CCC(=O)O[C@H](COC(=O)CCCCCCCCCCCCCCC)COP(=O)(O)OCCN (some centres not stated) [Oxidized PE 16:0_22:6@]

TIMS collisional cross section (sample type: Human plasma, ion (formula + adduct): [C43H74NO9P-H] 1-): 277.85 ± 0.78 Å²
TIMS collisional cross section [2]: 277.43 ± 0.71 Å²
SMILES: CC/C=C\C/C=C\CC(O)/C=C/C=C\C/C=C\C/C=C\CCC(=O)O[C@H](COC(=O)CCCCCCCCCCCCCCC)COP(=O)(O)OCCN (some centres not stated) [Oxidized PE 16:0_22:6]

TIMS collisional cross section (sample type: Human plasma, ion (formula + adduct): [C43H78NO8P-H] 1-): 280.43 ± 1.2 Å²
SMILES: CCCCC/C=C\C[C@H](O)/C=C/C=C\C/C=C\CCCC(=O)O[C@H](CO/C=C\CCCCCCCCCCCCCCCC)COP(=O)(O)OCCN [Oxidized PE 18:0@_20:4]

TIMS collisional cross section [3]: 298.2 Å²
TIMS collisional cross section [4]: 281.9 Å²
SMILES: CCCCC/C=C\C[C@H](O)/C=C/C=C\C/C=C\CCCC(=O)O[C@H](COC(=O)CCCCCCCCCCCCCCCCC)COP(=O)(O)OCCN [Oxidized PE 18:0@_20:4]

TIMS collisional cross section [5]: 285.8 Å²
SMILES: CC/C=C\C/C=C\CC(O)/C=C/C=C\C/C=C\C/C=C\CCC(=O)O[C@H](COC(=O)CCCCCCCCCCCCCCCCC)COP(=O)(O)OCCN (some centres not stated) [Oxidized PE 18:0@_22:6]

TIMS collisional cross section [3]: 282.5 Å²
TIMS collisional cross section [4]: 279 Å²
SMILES: CCCCC/C=C\C[C@H](O)/C=C/C=C\C/C=C\CCCC(=O)O[C@H](COC(=O)CCCCCCCCCCCCCCCCC)COP(=O)(O)OCCN [Oxidized PE 18:0_20:4]

TIMS collisional cross section [5]: 287 Å²
SMILES: CC/C=C\C/C=C\CC(O)/C=C/C=C\C/C=C\C/C=C\CCC(=O)O[C@H](COC(=O)CCCCCCCCCCCCCCCCC)COP(=O)(O)OCCN (some centres not stated) [Oxidized PE 18:0_22:6@]

TIMS collisional cross section [5]: 284.6 Å²
SMILES: CC/C=C\C/C=C\CC(O)/C=C/C=C\C/C=C\C/C=C\CCC(=O)O[C@H](COC(=O)CCCCCCCCCCCCCCCCC)COP(=O)(O)OCCN (some centres not stated) [Oxidized PE 18:0_22:6]

TIMS collisional cross section (sample type: Human plasma, ion (formula + adduct): [C43H76NO8P-H] 1-): 279.7 Å²
SMILES: CCCCC/C=C\C[C@H](O)/C=C/C=C\C/C=C\CCCC(=O)O[C@H](CO/C=C\CCCCCC/C=C\CCCCCCCC)COP(=O)(O)OCCN [Oxidized PE 18:1@_20:4]

TIMS collisional cross section (sample type: Mouse Liver, ion (formula + adduct): [C40H79O8P+Cl] 1-): 276.3 Å²
SMILES: CCCCCCCCCCCCCCCCCCCCC(=O)O[C@H](COC(=O)CCCCCCCCCCCCCCC)COP(=O)(O)O [PA 16:0_21:0@]

TIMS collisional cross section (sample type: Human plasma, ion (formula + adduct): [C42H83O8P-CH3] 1-): 286.6 Å²
SMILES: CCCCCCCCCCCCCCCCCCCCCC(=O)O[C@H](COC(=O)CCCCCCCCCCCCCCCC)COP(=O)(O)O [PA 17:0_22:0@]

TIMS collisional cross section (sample type: Mouse Liver, ion (formula + adduct): [C37H73O8P+Cl] 1-): 267.2 Å²
SMILES: CCCCCCCCCCCCCCCCCC(=O)OC[C@H](COP(=O)(O)O)OC(=O)CCCCCCCCCCCCCCC [PA 18:0@_16:0]

TIMS collisional cross section (sample type: Mouse Liver, ion (formula + adduct): [C39H77O8P+Cl] 1-): 273.4 Å²
SMILES: CCCCCCCCCCCCCCCCCC(=O)OCC(COP(=O)(O)O)OC(=O)CCCCCCCCCCCCCCCCC (configuration not stated) [PA 18:0_18:0]

TIMS collisional cross section (sample type: Mouse Liver, ion (formula + adduct): [C30H60NO8P+HCOO] 1-): 248.5 Å²
SMILES: CCCCCCCCCCCCCCCCCC(=O)O[C@H](COC(=O)CCC)COP(=O)([O-])OCC[N+](C)(C)C [PC 4:0@_18:0]

TIMS collisional cross section (sample type: Mouse Liver, ion (formula + adduct): [C36H72NO8P+HCOO] 1-): 277.6 Å²
SMILES: CCCCCCCCCCCCCCCCCCCC(=O)O[C@H](COC(=O)CCCCCCC)COP(=O)([O-])OCC[N+](C)(C)C [PC 8:0_20:0@]

TIMS collisional cross section (sample type: Human plasma, ion (formula + adduct): [C36H70NO8P+HCOO] 1-): 275.3 Å²
SMILES: CCCCCC/C=C\CCCCCCCC(=O)O[C@H](COC(=O)CCCCCCCCCCC)COP(=O)([O-])OCC[N+](C)(C)C [PC 12:0@_16:1]

TIMS collisional cross section (sample type: Human plasma, ion (formula + adduct): [C34H68NO8P+HCOO] 1-): 270.8 Å²
SMILES: CCCCCCCCCCCCCC(=O)O[C@H](COC(=O)CCCCCCCCCCC)COP(=O)([O-])OCC[N+](C)(C)C [PC 12:0_14:0]

TIMS collisional cross section (sample type: Mouse Liver, ion (formula + adduct): [C39H74NO8P-H] 1-): 266.3 Å²
SMILES: CCCCC/C=C\C/C=C\CCCCCCCC(=O)O[C@H](COC(=O)CCCCCCCCCCCC)COP(=O)([O-])OCC[N+](C)(C)C [PC 13:0@_18:2]

TIMS collisional cross section [1]: 289.2 Å²
TIMS collisional cross section (sample type: Mouse Liver, ion (formula + adduct): [C41H74NO8P-CH3] 1-): 267.1 Å²
TIMS collisional cross section (sample type: Mouse Liver, ion (formula + adduct): [C41H74NO8P-H] 1-): 272.3 Å²
SMILES: CCCCC/C=C\C/C=C\C/C=C\C/C=C\CCCC(=O)O[C@H](COC(=O)CCCCCCCCCCCC)COP(=O)([O-])OCC[N+](C)(C)C [PC 13:0@_20:4]

TIMS collisional cross section (sample type: Mouse Liver, ion (formula + adduct): [C38H74NO8P+HCOO] 1-): 280.9 Å²
SMILES: CCCCCC/C=C\CCCCCCCC(=O)O[C@H](COC(=O)CCCCCCCCCCCCC)COP(=O)([O-])OCC[N+](C)(C)C [PC 14:0@_16:1]

TIMS collisional cross section (sample type: Mouse Liver, ion (formula + adduct): [C39H76NO8P-CH3] 1-): 265 Å²
SMILES: CCCCCCC/C=C\CCCCCCCC(=O)O[C@H](COC(=O)CCCCCCCCCCCCC)COP(=O)([O-])OCC[N+](C)(C)C [PC 14:0@_17:1]

TIMS collisional cross section (sample type: Human plasma, ion (formula + adduct): [C40H78NO8P+HCOO] 1-): 286 Å²
SMILES: CCCCCC/C=C\CCCCCCCCCC(=O)O[C@H](COC(=O)CCCCCCCCCCCCC)COP(=O)([O-])OCC[N+](C)(C)C [PC 14:0@_18:1]

TIMS collisional cross section (sample type: Human plasma, ion (formula + adduct): [C40H74NO8P+HCOO] 1-): 284.9 Å²
SMILES: CC/C=C\C/C=C\C/C=C\CCCCCCCC(=O)O[C@H](COC(=O)CCCCCCCCCCCCC)COP(=O)([O-])OCC[N+](C)(C)C [PC 14:0@_18:3]

TIMS collisional cross section (sample type: Human plasma, ion (formula + adduct): [C40H72NO8P+HCOO] 1-): 277.9 Å²
SMILES: CC/C=C\C/C=C\C/C=C\C/C=C\CCCCC(=O)O[C@H](COC(=O)CCCCCCCCCCCCC)COP(=O)([O-])OCC[N+](C)(C)C [PC 14:0@_18:4]

TIMS collisional cross section (sample type: Mouse Liver, ion (formula + adduct): [C42H76NO8P-H] 1-): 272.8 Å²
SMILES: CCCCC/C=C\C/C=C\C/C=C\C/C=C\CCCC(=O)O[C@H](COC(=O)CCCCCCCCCCCCC)COP(=O)([O-])OCC[N+](C)(C)C [PC 14:0@_20:4]

TIMS collisional cross section (sample type: Mouse Liver, ion (formula + adduct): [C44H76NO8P-H] 1-): 277.87 ± 0.55 Å²
SMILES: CC/C=C\C/C=C\C/C=C\C/C=C\C/C=C\C/C=C\CCC(=O)O[C@H](COC(=O)CCCCCCCCCCCCC)COP(=O)([O-])OCC[N+](C)(C)C [PC 14:0@_22:6]

TIMS collisional cross section (sample type: Human plasma, ion (formula + adduct): [C36H72NO8P+HCOO] 1-): 277.1 Å²
SMILES: CCCCCCCCCCCCCC(=O)OC[C@H](COP(=O)([O-])OCC[N+](C)(C)C)OC(=O)CCCCCCCCCCCCC [PC 14:0_14:0]

TIMS collisional cross section (sample type: Mouse Liver, ion (formula + adduct): [C38H76NO8P+HCOO] 1-): 283.8 Å²
SMILES: CCCCCCCCCCCCCCCC(=O)O[C@H](COC(=O)CCCCCCCCCCCCC)COP(=O)([O-])OCC[N+](C)(C)C [PC 14:0_16:0@]

TIMS collisional cross section (sample type: Human plasma, ion (formula + adduct): [C38H76NO8P+HCOO] 1-): 282.7 Å²
SMILES: CCCCCCCCCCCCCCCC(=O)O[C@H](COC(=O)CCCCCCCCCCCCC)COP(=O)([O-])OCC[N+](C)(C)C [PC 14:0_16:0]

TIMS collisional cross section (sample type: Human plasma, ion (formula + adduct): [C38H74NO8P+HCOO] 1-): 280.9 Å²
SMILES: CCCCCC/C=C\CCCCCCCC(=O)O[C@H](COC(=O)CCCCCCCCCCCCC)COP(=O)([O-])OCC[N+](C)(C)C [PC 14:0_16:1]

TIMS collisional cross section (sample type: Human plasma, ion (formula + adduct): [C40H80NO8P+HCOO] 1-): 287.7 Å²
SMILES: CCCCCCCCCCCCCCCCCC(=O)O[C@H](COC(=O)CCCCCCCCCCCCC)COP(=O)([O-])OCC[N+](C)(C)C [PC 14:0_18:0]
